The record followed here is ChEMBL document CHEMBL4265953, “Exploration of novel pyrrolo[2,1-f][1,2,4]triazine derivatives with improved anticancer efficacy as dual inhibitors of c-Met/VEGFR-2” (Eur J Med Chem, 2018).

Converted amounts (≈) assume the structure as drawn. A value given as a limit tells only on which side of the number the result lay.

A short description of data set [1]: Half life in Sprague-Dawley rat at 2 mg/kg, iv by LC-MS analysis. In kind it is ADME, organism-based. Particulars: in vivo.
Data set [2] is described as follows: Half life in Sprague-Dawley rat at 10 mg/kg, po by LC-MS analysis. In kind it is ADME, organism-based. The settings on record: in vivo.
Data set [3] in a line: AUC in Sprague-Dawley rat at 2 mg/kg, iv by LC-MS analysis. Particulars: in vivo. The class given is ADME, organism-based.
Data set [4] in a line: AUC in Sprague-Dawley rat at 10 mg/kg, po by LC-MS analysis. In kind it is ADME, organism-based. The settings on record: in vivo.
Data set [5] is described as follows: Tmax in Sprague-Dawley rat at 10 mg/kg, po by LC-MS analysis. Particulars: in vivo. In kind it is ADME, organism-based.
A short description of data set [6]: Cmax in Sprague-Dawley rat at 2 mg/kg, iv by LC-MS analysis. The class given is ADME, organism-based. On the set-up: dose 2 mg/kg, route intravenous. Particulars: in vivo.
Data set [7] can be described thus: Cmax in Sprague-Dawley rat at 10 mg/kg, po by LC-MS analysis. The class given is ADME, organism-based. The arrangement: dose 10 mg/kg, route oral. Particulars: in vivo.
The nature of data set [8]: Clearance in Sprague-Dawley rat at 2 mg/kg, iv by LC-MS analysis. The class given is ADME, organism-based. The settings on record: in vivo.
A short description of data set [9]: Oral bioavailability in Sprague-Dawley rat at 10 mg/kg by LC-MS analysis. In kind it is ADME, organism-based. The settings on record: in vivo.
Data set [10] can be described thus: physchem.
Data set [11] is described as follows: physchem. Particulars: n-octanol/water.
For data set [12] the following is noted: octanol/water, 0.5 h.

By half-life is commonly meant how long it takes for the measured level to halve. A lower half-life goes with rapid decline. Usually AUC stands for concentration integrated over time. As usually defined, the Tmax is the time from dosing to the highest level. As a reminder, the Cmax is the peak of the concentration-time curve. Usually clearance stands for the volume of plasma or blood freed of the substance per unit of time. As a reminder, the bioavailability is the share of a dose that reaches the circulation, judged against a reference dose that is usually intravenous. A high value points to good availability. As a reminder, the solubility is how much of the substance goes into solution per volume. As usually defined, the logP is the decadic logarithm of the partition coefficient of the neutral form, usually between octanol and water. Read a high logP as a more lipophilic compound. As to `Cc1c(OCC(O)CN2CCN(C)CC2)cn2ncnc(Oc3ccc(NC(=O)C4(C(=O)Nc5ccc(F)cc5)CC4)cc3F)c12` (stereo not given), the figures for the half-life in data set [1] and in data set [2] were 2.16 h and 5 h, respectively. Further, the AUC was found to be 239 ng·h/mL in [3] and 1170 ng·h/mL in [4]. For the same molecule, in [5], the Tmax was found to be 5 h. For the same molecule, the Cmax came out at 72.1 ng/mL in [6] and 129 ng/mL in [7]. This molecule displayed a clearance in data set [8] of 139 mL/min/kg. The bioavailability in [9] came out at 98.1%. Further, the solubility at 1 h in “physchem [10]” was 20.5 µg/mL (≈ 32.2 µM). Besides, in the data set “physchem [11]”, the logP at 0.5 h was found to be 2.98.

`COc1cc2nccc(Oc3ccc(NC(=O)C4(C(=O)Nc5ccc(F)cc5)CC4)cc3)c2cc1OC.O=C(O)C[C@H](O)C(=O)O` [CABOZANTINIB S-MALATE] returned a logP in data set [12] of 1.89. Also, the concentration in solution in “physchem [10]” (solubility at 1 h) was 52 µg/mL.

Turning to `COc1cc2nccc(Oc3ccc(NC(=O)C4(C(=O)Nc5ccc(F)cc5)CC4)cc3)c2cc1OC` [CABOZANTINIB], the solubility at 1 h in the data set “physchem [10]” was less than 0.1 µg/mL. The molecule further had a logP at 0.5 h in “physchem [11]” of 3.89.
